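1) Cells in 96-well plates. 2) Compound, 48 h, 5 concentrations. 3) Linear interpolation between surrounding doses. 4) Unreached endpoint = highest concentration. GI50: concentration for 50% inhibition of growth. Definition used: TGI = concentration required for complete inhibition of growth.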
Assays:
Assay in all cases: NCI tumour cell line growth inhibition, 48 h
TK-10 renal = tested on: TK-10 renal
HS 578T breast = tested on: HS 578T breast
NCI-H226 lung = tested on: NCI-H226 lung
SK-MEL-28 melanoma = tested on: SK-MEL-28 melanoma
SF-268 CNS = tested on: SF-268 CNS
CCRF-CEM leukemia = tested on: CCRF-CEM leukemia
K-562 leukemia = tested on: K-562 leukemia
MDA-MB-231 breast = tested on: MDA-MB-231 breast
LOX IMVI melanoma = tested on: LOX IMVI melanoma
SK-MEL-2 melanoma = tested on: SK-MEL-2 melanoma
HCC-2998 colon = tested on: HCC-2998 colon
UO-31 renal = tested on: UO-31 renal
MALME-3M melanoma = tested on: MALME-3M melanoma
HOP-62 NSCLC = tested on: HOP-62 NSCLC
SF-295 CNS = tested on: SF-295 CNS
KM12 colon = tested on: KM12 colon
SR leukemia = tested on: SR leukemia
HL-60(TB) leukemia = tested on: HL-60(TB) leukemia
MDA-MB-435 = tested on: MDA-MB-435
PC-3 prostate = tested on: PC-3 prostate
SK-OV-3 ovarian = tested on: SK-OV-3 ovarian
SF-539 CNS = tested on: SF-539 CNS
A498 renal = tested on: A498 renal
U251 CNS = tested on: U251 CNS
SW-620 colon = tested on: SW-620 colon
OVCAR-5 ovarian = tested on: OVCAR-5 ovarian
HCT-15 colon = tested on: HCT-15 colon
NCI-H522 lung = tested on: NCI-H522 lung
SNB-19 CNS = tested on: SNB-19 CNS
HCT-116 colon = tested on: HCT-116 colon
DU-145 prostate = tested on: DU-145 prostate
M14 melanoma = tested on: M14 melanoma
NCI/ADR-RES ovarian = tested on: NCI/ADR-RES ovarian
SK-MEL-5 melanoma = tested on: SK-MEL-5 melanoma
HT29 colon = tested on: HT29 colon
EKVX NSCLC = tested on: EKVX NSCLC
BT-549 breast = tested on: BT-549 breast
RXF 393 renal = tested on: RXF 393 renal
T-47D breast = tested on: T-47D breast
NCI-H460 lung = tested on: NCI-H460 lung
COLO 205 colon = tested on: COLO 205 colon
RPMI-8226 leukemia = tested on: RPMI-8226 leukemia
CAKI-1 renal = tested on: CAKI-1 renal
A549 NSCLC = tested on: A549 NSCLC
UACC-257 melanoma = tested on: UACC-257 melanoma
786-0 renal = tested on: 786-0 renal
SNB-75 CNS = tested on: SNB-75 CNS
IGROV1 ovarian = tested on: IGROV1 ovarian
OVCAR-4 ovarian = tested on: OVCAR-4 ovarian
OVCAR-8 ovarian = tested on: OVCAR-8 ovarian
MOLT-4 leukemia = tested on: MOLT-4 leukemia
UACC-62 melanoma = tested on: UACC-62 melanoma
NCI-H23 lung = tested on: NCI-H23 lung
OVCAR-3 ovarian = tested on: OVCAR-3 ovarian
ACHN renal = tested on: ACHN renal
MCF7 breast = tested on: MCF7 breast
SN12C renal = tested on: SN12C renal

COc1ccccc1/C=C/[N+](=O)[O-]
GI50 (TK-10 renal): 2.81 µM
TGI (TK-10 renal): 6.31 µM
GI50 (HS 578T breast): 2.79 µM
TGI (HS 578T breast): 8.83 µM
GI50 (NCI-H226 lung): 3.41 µM
TGI (NCI-H226 lung): 11.7 µM
GI50 (SK-MEL-28 melanoma): 1.62 µM
TGI (SK-MEL-28 melanoma): 3.66 µM
GI50 (SF-268 CNS): 2.39 µM
TGI (SF-268 CNS): 5.12 µM
GI50 (CCRF-CEM leukemia): 2.16 µM
TGI (CCRF-CEM leukemia): 6.47 µM
GI50 (K-562 leukemia): 1.56 µM
TGI (K-562 leukemia): 7.37 µM
GI50 (MDA-MB-231 breast): 2.06 µM
TGI (MDA-MB-231 breast): 6.93 µM
GI50 (LOX IMVI melanoma): 1.4 µM
TGI (LOX IMVI melanoma): 2.86 µM
GI50 (SK-MEL-2 melanoma): 5.4 µM
TGI (SK-MEL-2 melanoma): 17.2 µM
GI50 (HCC-2998 colon): 1.76 µM
TGI (HCC-2998 colon): 3.24 µM
GI50 (UO-31 renal): 1.45 µM
TGI (UO-31 renal): 2.8 µM
GI50 (MALME-3M melanoma): 2.82 µM
TGI (MALME-3M melanoma): 9.11 µM
GI50 (HOP-62 NSCLC): 2.57 µM
TGI (HOP-62 NSCLC): 7.12 µM
GI50 (SF-295 CNS): 4.67 µM
TGI (SF-295 CNS): 20.5 µM
GI50 (KM12 colon): 3.02 µM
TGI (KM12 colon): 8.59 µM
GI50 (SR leukemia): 0.886 µM
TGI (SR leukemia): 5.02 µM
GI50 (HL-60(TB) leukemia): 1.92 µM
TGI (HL-60(TB) leukemia): 4.49 µM
GI50 (MDA-MB-435): 2.59 µM
TGI (MDA-MB-435): 10.5 µM
GI50 (PC-3 prostate): 2.41 µM
TGI (PC-3 prostate): 6.93 µM
GI50 (SK-OV-3 ovarian): 5.81 µM
TGI (SK-OV-3 ovarian): 17.7 µM
GI50 (SF-539 CNS): 2.16 µM
TGI (SF-539 CNS): 4.32 µM
GI50 (A498 renal): 1.93 µM
TGI (A498 renal): 5.03 µM
GI50 (U251 CNS): 2.07 µM
TGI (U251 CNS): 5.72 µM
GI50 (SW-620 colon): 1.56 µM
TGI (SW-620 colon): 3.19 µM
GI50 (OVCAR-5 ovarian): 3.55 µM
TGI (OVCAR-5 ovarian): 14.1 µM
GI50 (HCT-15 colon): 2.32 µM
TGI (HCT-15 colon): 6.98 µM
GI50 (NCI-H522 lung): 1.08 µM
TGI (NCI-H522 lung): 2.47 µM
GI50 (SNB-19 CNS): 4.85 µM
TGI (SNB-19 CNS): 19 µM
GI50 (HCT-116 colon): 1.51 µM
TGI (HCT-116 colon): 2.9 µM
GI50 (DU-145 prostate): 1.95 µM
TGI (DU-145 prostate): 3.63 µM
GI50 (M14 melanoma): 1.89 µM
TGI (M14 melanoma): 3.94 µM
GI50 (NCI/ADR-RES ovarian): 2.92 µM
TGI (NCI/ADR-RES ovarian): 11.6 µM
GI50 (SK-MEL-5 melanoma): 2 µM
TGI (SK-MEL-5 melanoma): 4.03 µM
GI50 (HT29 colon): 2.01 µM
TGI (HT29 colon): 3.85 µM
GI50 (EKVX NSCLC): 15.3 µM
TGI (EKVX NSCLC): 58.3 µM
GI50 (BT-549 breast): 2.09 µM
TGI (BT-549 breast): 4.13 µM
GI50 (RXF 393 renal): 1.43 µM
TGI (RXF 393 renal): 2.81 µM
GI50 (T-47D breast): 3.17 µM
TGI (T-47D breast): 16.9 µM
GI50 (NCI-H460 lung): 2.03 µM
TGI (NCI-H460 lung): 4.35 µM
GI50 (COLO 205 colon): 2.12 µM
TGI (COLO 205 colon): 4.52 µM
GI50 (RPMI-8226 leukemia): 1.05 µM
TGI (RPMI-8226 leukemia): 3.78 µM
GI50 (CAKI-1 renal): 2.95 µM
TGI (CAKI-1 renal): 46.6 µM
GI50 (A549 NSCLC): 3 µM
TGI (A549 NSCLC): 10.4 µM
GI50 (UACC-257 melanoma): 1.84 µM
TGI (UACC-257 melanoma): 4.32 µM
GI50 (786-0 renal): 1.82 µM
TGI (786-0 renal): 3.35 µM
GI50 (SNB-75 CNS): 3.57 µM
TGI (SNB-75 CNS): 44.5 µM
GI50 (IGROV1 ovarian): 2.54 µM
TGI (IGROV1 ovarian): 8.32 µM
GI50 (OVCAR-4 ovarian): 3.56 µM
TGI (OVCAR-4 ovarian): 37.7 µM
GI50 (OVCAR-8 ovarian): 3.1 µM
TGI (OVCAR-8 ovarian): 10.4 µM
GI50 (MOLT-4 leukemia): 2.54 µM
TGI (MOLT-4 leukemia): 6.45 µM
GI50 (UACC-62 melanoma): 1.95 µM
TGI (UACC-62 melanoma): 4.13 µM
GI50 (NCI-H23 lung): 1.96 µM
TGI (NCI-H23 lung): 4.6 µM
GI50 (OVCAR-3 ovarian): 2.23 µM
TGI (OVCAR-3 ovarian): 4.67 µM
GI50 (ACHN renal): 2.01 µM
TGI (ACHN renal): 3.84 µM
GI50 (MCF7 breast): 2.43 µM
TGI (MCF7 breast): 7.99 µM
GI50 (SN12C renal): 2.47 µM
TGI (SN12C renal): 8.03 µM

From PubChem BioAssay (NCI)
